Data on seven compounds can be found in patent US20250155433A1, “FLUORESCENT SENSORS FOR DETECTION OF SIDEROPHORES AND OTHER MOLECULES PRODUCED BY BACTERIAL PATHOGENS” (Kansas State University Research Foundation, priority 2021, published 2025).

Where a SMILES comes first, the peptide text is derived from it. [ ]: non-standard residue; d: D form. Orn(N5-OH,N5-Ac) = CC(=O)N(O)CCC[C@H](N)C(=O)O

In one test the target is T1, EcoIutA (Escherichia coli, UniProt P14542, T573C).
T1 construct: expressed in transfected cells; host or cells: E. coli OKN3/OKN13/OKN359/OKN1359 carrying a pITS23 derivative
Nature of the test: Fluorescence quenching binding to EcoIutA-FM sensor. The following applies: for Binding by IutA: other ferric hydroxamates. On the procedure:
(§1) Fluorescence modifications. For modifications with maleimide fluorophores, we inoculated E. coli strains OKN3, OKN13, OKN359 or OKN1359, harboring plasmids that encoded a Cys mutant LGP, from frozen stocks into LB, grew them overnight and sub-cultured at 1% into iron-deficient MOPS minimal media, with shaking (200 rpm) at 37° C. for 10-12 h, until late exponential phase. After collecting the cells by centrifugation at 7500×g for 15 min, and washing with 50 mM NaHPO4, pH 6.7, we labeled the Cys-mutant LGP with 5 μM FM in 50 mM NaHPO4, pH 6.7 for 15 min at 37° C. FM. We terminated the labeling reactions with 100 μM β-mercaptoethanol. After collecting the fluoresceinated cells by centrifugation at 7500×g for 15 min, and washing with 50 mM NaHPO4, pH 6.7, we re-suspended them in PBS plus 0.2% glucose. We either immediately used the labeled cells in spectroscopic experiments, or rested them on ice (up to 24 h), or added glycerol to 15% and stored them (indefinitely) as 1 mL aliquots at −70° C. In the latter case, after thawing the labeled cells we pelleted them by centrifugation in a microfuge, washed them once with and re-suspended them in PBS containing 0.2% glucose. Lastly, for evaluation of protein expression or the extent of FM-labeling we solubilized aliquots of the cell suspensions with sample buffer, and subjected them to SDS-PAGE. After electrophoresis, we first visualized the fluorescence labeling on a Typhoon 8600 Biomolecular Scanner (GE/Amersham), and then stained the gels with Coomassie blue R (153).
(§2) Fluorescence spectroscopic binding determinations. We observed fluorophore-labeled cells in an SLM AMINCO 8100 fluorescence spectrometer, upgraded with an OLIS operating system and software (OLIS SpectralWorks, OLIS Inc., Bogart, GA), to control its shutters, polarizers and data collection. We also utilized an OLIS Clarity fluorescence spectrometer for fluorescence assays. For binding determinations we deposited 2.5×10^7 labeled cells in a quartz cuvette (final volume, 2 mL) with stirring at 37° C., measured the initial fluorescence (F0), and then added increasing concentrations of an iron complex while monitoring the quenching of fluorescence emissions (F) at 520 nm. We performed each measurement in triplicate and calculated the mean value of F/F0 at each ligand concentration. We plotted 1−F/F0 vs [ligand] and analyzed the data by the 1-site binding model of Grafit 6.0.12 (Erithacus Ltd. West Sussex, UK), that fits data to a single site saturation curve, where the amount of ligand bound is plotted as a function of the amount free: […]
(§3) Table 1 lists KD values from analysis of fluorescence quenching with ferric or apo (parenthetic values) siderophores or porphyrins. […]

Test [1] deals with T2, HsaSCN (human siderocalin) (Homo sapiens, UniProt P80188, Q148C).
T2 construct: adds a 6H-tag at either the N- or C-termini of the mature proteins; 6-His (N); made in house; host or cells: E. coli BL21 (pET28), IPTG-induced; purified on Talon Superflow
Nature of the test: Fluorescence quenching binding to purified HsaSCN-FM sensor. As to conditions: read-out: KD, HsaSCN-FM.

In the next test the target is EcoFhuA (Escherichia coli, UniProt P06971). Nature of the test: Fluorescence quenching binding to EcoFhuA-FM sensor. As to conditions: read-out: Affinity (KD) of sensor EcoFhuA; ferric complexes; Cys residue D396C, FM-labeled; NB = no binding. On the procedure:
as §1, §2, §3

Another test relates to CRE/ESKAPE pathogens. Nature of the test: Decoy sensor measurements of metal complex uptake by bacteria. The class given is cell-based. As to conditions: decoy sensors in TonB-deficient E. coli, 37° C., strains grown in iron-deficient MOPS. The source says: Fluorescence spectroscopic uptake measurements. We employed FD sensors to monitor TonB-dependent uptake of various siderophores by bacterial pathogens. In the fluorescence spectroscopic uptake studies E. coli OKN13 (ΔtonB, ΔfepA) or OKN1359 (ΔtonB, Δfiu, ΔfepA, Δcir) were host strains for pITS23 derivatives carrying single Cys mutants of an LGP of interest. The FLGP were decoy sensors that monitored ferric siderophore uptake by test strains. For each assay we used 10^7 sensor cells (e.g., OKN13/pFepA-FM (53)) in a 2 mL quartz cuvette containing PBS+0.2% glucose at 37° C. After recording fluorescence intensity for 100 seconds, we added an iron complex (e.g., FeEnt) at a final concentration of ˜10 nM. After incubating the sample for 100 seconds, during which time fluorescence was quenched (e.g., ˜60% quenching for EcoFepA_A698C-FM), we added 0.5-2×10^7 cells of the test strain (E. coli MG1655, K. pneumoniae Kp52.145, A. baumannii 17978, P. aeruginosa PA01, E. cloacae) and monitored the time-course of fluorescence emissions at 520 nm for 15-40 minutes, with stirring.

The target in the next test is AbaBauA (Acinetobacter baumannii, UniProt Q76HJ9, S407C). Put plainly: Fluorescence quenching binding to AbaBauA-FM sensor. As to conditions: read-out: Affinity (KD) of sensor AbaBauA; ferric complexes; Cys residue S385C, FM-labeled; NB = no binding. On the procedure: (§4) Fluorescence modifications. For modifications with maleimide fluorophores, we inoculated E. coli strains OKN3, OKN13, OKN359 or OKN1359, harboring plasmids that encoded a Cys mutant LGP, from frozen stocks into LB, grew them overnight and sub-cultured at 1% into iron-deficient MOPS minimal media, with shaking (200 rpm) at 37° C. for 10-12 h, until late exponential phase. After collecting the cells by centrifugation at 7500×g for 15 min, and washing with 50 mM NaHPO4, pH 6.7, we labeled the Cys-mutant LGP with 5 μM FM in 50 mM NaHPO4, pH 6.7 for 15 min at 37° C. FM. We terminated the labeling reactions with 100 μM β-mercaptoethanol. […] After electrophoresis, we first visualized the fluorescence labeling on a Typhoon 8600 Biomolecular Scanner (GE/Amersham), and then stained the gels with Coomassie blue R (153).
(§5) Fluorescence spectroscopic binding determinations. We observed fluorophore-labeled cells in an SLM AMINCO 8100 fluorescence spectrometer, upgraded with an OLIS operating system and software (OLIS SpectralWorks, OLIS Inc., Bogart, GA), to control its shutters, polarizers and data collection. We also utilized an OLIS Clarity fluorescence spectrometer for fluorescence assays. […] We performed each measurement in triplicate and calculated the mean value of F/F0 at each ligand concentration. […]

Another test deals with AbaPiuA (Acinetobacter baumannii, UniProt D0CAH3, S724C). Put plainly: Fluorescence quenching binding to AbaPiuA-FM sensor. On the procedure: as §1, with “In the latter case, after thawing the labeled cells we pelleted them by centrifugation in a microfuge, washed them once with and re-suspended them in PBS containing 0.2% glucose. Lastly, for evaluation of protein expression or the extent of FM-labeling we solubilized aliquots of the cell suspensions with sample buffer, and subjected them to SDS-PAGE.” left out
as §2, with “concentration.” for “concentration. We plotted 1−F/F0 vs [ligand] and analyzed the data by the 1-site binding model of Grafit 6.0.12 (Erithacus Ltd. West Sussex, UK), that fits data to a single site saturation curve, where the amount of ligand bound is plotted as a function of the amount free:”
as §3

In the next test the target is T3, PaeFpvA (Pseudomonas aeruginosa, UniProt P48632, T660C).
T3 construct: expressed in transfected cells; host or cells: E. coli OKN3/OKN13/OKN359/OKN1359 carrying a pITS23 derivative
Nature of the test: Fluorescence quenching binding to PaeFpvA-FM sensor. As to conditions: secondary ligands. How it is done: as §4, §5

The next test deals with T4, EcoFiu (Escherichia coli, UniProt P75780, A694C).
T4 construct: expressed in transfected cells; host or cells: E. coli OKN3/OKN13/OKN359/OKN1359 carrying a pITS23 derivative
Put plainly: biochemical. Format: binding. How it is done: as §1
Fluorescence spectroscopic binding determinations. We observed fluorophore-labeled cells in an SLM AMINCO 8100 fluorescence spectrometer, upgraded with an OLIS operating system and software (OLIS SpectralWorks, OLIS Inc., Bogart, GA), to control its shutters, polarizers and data collection. We also utilized an OLIS Clarity fluorescence spectrometer for fluorescence assays. For binding determinations we deposited 2.5×10^7 labeled cells in a quartz cuvette (final volume, 2 mL) with stirring at 37° C., measured the initial fluorescence (F0), and then added increasing concentrations of an iron complex while monitoring the quenching of fluorescence emissions (F) at 520 nm. We performed each measurement in triplicate and calculated the mean value of F/F0 at each ligand concentration. We plotted 1−F/F0 vs [ligand] and analyzed the data by the 1-site binding model of Grafit 6.0.12 (Erithacus Ltd. West Sussex, UK), that fits data to a single site saturation curve, where the amount of ligand bound is plotted as a function of the amount free:
These plots yielded KD values for each of the receptor-ligand interactions, with associated standard errors.
Table 1 lists KD values from analysis of fluorescence quenching with ferric or apo (parenthetic values) siderophores or porphyrins. For each determination, we measured the extent of fluorescence quenching of an FLGP, when exposed to sequentially increasing concentrations of the listed metal complexes, as plotted in FIGS. 2-4. We performed each experiment 2 or 3 times. The tabulated KD values are from single, representative experiments, in which we collected each data point in triplicate, plotted F/F0 vs [ligand] for each quenching titration, and fitted the curves to a single site binding model using Grafit 6.012 (Erithacus Ltd, […], UK).

For the next test, the target named is KpnFepA2380. Put plainly: Fluorescence quenching binding to KpnFepA2380-FM sensor. Also noted: species or system Klebsiella pneumoniae. As to conditions: ferric complexes; Cys residue T255C, FM-labeled; NB = no binding; read-out: Affinity (KD) of sensor KpnFepA 2380. On the procedure:
as §4, §5

In turn, `CC(=O)N(O)CCCC[C@H](NC(=O)CC(O)(CC(=O)N[C@@H](CCCCN(O)C(C)=O)C(=O)O)C(=O)O)C(=O)O` [Abn, aerobactin] returned a dissociation constant Kd at EcoIutA of 1400 nM.

Regarding `CC(=O)N(O)CCC[C@@H]1NC(=O)CNC(=O)CNC(=O)CNC(=O)[C@H](CCCN(O)C(C)=O)NC(=O)[C@H](CCCN(O)C(C)=O)NC1=O.[Fe+3]` [Fc, ferrichrome] (cyclo(GGG[Orn(N5-OH,N5-Ac)][Orn(N5-OH,N5-Ac)][Orn(N5-OH,N5-Ac)])), at EcoIutA, the “Binding by IutA” value is on record as “did not measurably bind”. Further, the dissociation constant (Kd) was 110 nM in test [1] and 3 nM on EcoFhuA. For `C/C(=C\C(=O)N(O)CCC[C@@H]1NC(=O)CNC(=O)[C@H](CO)NC(=O)[C@H](CO)NC(=O)[C@H](CCCN(O)C(=O)/C=C(\C)CC(=O)O)NC(=O)[C@H](CCCN(O)C(=O)/C=C(\C)CC(=O)O)NC1=O)CC(=O)O.[Fe+3]` [FcA], the “Binding by IutA” value at EcoIutA is on record as “did not measurably bind”. Further, the dissociation constant Kd at EcoFhuA came to 60 nM. Take `CC(=O)N([O-])CCCC[C@H](NC(=O)CC(O)(CC(=O)N[C@@H](CCCCN([O-])C(C)=O)C(=O)O)C(=O)[O-])C(=O)O.[Fe+3]` [FeAbn, ferric aerobactin]: in the test with CRE/ESKAPE pathogens, the “TonB-dependent uptake by test strains” value is given as “uptake of FeAbn by all the strains except A. baumannii”. As to `O=C([C@@H]1CSC(c2cccc(O)c2O)=N1)N(O)CCc1c[nH]cn1.[Fe+3]` [FeAgn], the Kd on AbaBauA was 1100 nM; in test [1] it was 160 nM.

On to `O=C(N[C@@H](CO)C(=O)O)c1cccc(O)c1O.[Fe+3]` [FeDHBS], for which, on AbaPiuA, the “Binding by AbaPiuA” value was “did not bind”. Consider `O=C(O)c1cccc(O)c1O.[Fe+3]` [FeDHB], for which the “Binding by PaeFpvA” value on PaeFpvA is given as “weakly bound”. At EcoFiu, the “Binding by EcoFiu” value was “did not bind”. In addition, on KpnFepA2380, the Kd amounted to 22 µM.
